Columns and labels:
[1] = test system: β amyloid protein (Aβ) secreted by E35 cells (human glioma H4 cells transfected with APP751 gene); experiment: Inhibition of production or secretion of β-amyloid protein (Aβ) in E35 cells, sandwich ELISA of the supernatant; assay type: cell-based; settings: 24 hours with test compound, compared to DMSO control cells, read-out: Activity (IC50, concentration at which 50% inhibition of Aβ production was observed)
Description: The inhibitory activity against formation of β amyloid protein of the compounds obtained in Examples was tested in the method described bellow.
E35 cells were established by transfecting APP751 gene which is a wild type human β-amyloid protein precursor into human glioma cells (H4 cells).
E35 cells were seeded in 96-well plates and cultured in an incubator of 37° C. by using a Dulbecco's Modified Eagle's Medium containing 10% inactivated fetal bovine serum (10% FBS-DMEM). Twenty-four hours after seeding, a test compound dissolved in DMSO so as to give its concentration to be 2000 times as much as that of the final concentration was added to the medium in an amount of 1/2000 capacity of the culture medium. The cells were cultured for additional twenty-four hours, and then the supernatant was collected. The amount of β amyloid protein (Aβ) secreted in the supernatant was measured by the sandwich enzyme-linked immunosorbent assay (ELISA). Described specifically, a monoclonal antibody 25-1, which recognized Aβ25-35, was immobilized onto a 96-well ELISA plate, followed by the incubation at 4° C. for 16 to 20 hours. After washing with a phosphate buffer (pH 7.4) (PBS), a biotinylated monoclonal antibody MA32-40, which recognized Aβ1-8, was added, and the plate was kept at 4° C. for 2 hours. After the supernatant was removed and the well was washed sufficiently with PBS, alkaline phosphatase-conjugated streptavidin was added to the plate. Absorbance was measured while adding BlouPhos (manufactured by KPL) as a substrate. An amount of Aβ contained in the supernatant was calculated using a calibration curve separately created using Aβ of a known concentration. IC50 of the test compound was presented as the concentration at which 50% inhibition of Aβ production was observed compared to the amount of Aβ of the control cells to which only DMSO was added.
When there is at least 10-times difference between the IC50 and the concentration at which cytotoxicity appears, then the compound is judged as a compound having an inhibitory activity against production or secretion of β amyloid protein.

SMILES: CS(=O)(=O)N(N)c1cc(C(c2cc(F)ccc2F)S(=O)(=O)c2ccc(Cl)cc2)c(Cl)cn1 (centres unmarked) [Example 225, 1-[5-Chloro-4-[(4-chlorophenylsulfonyl)(2,5-difluorophenyl)methyl]pyridin-2-yl]-1-methylsulfonylhydrazine]
- IC50 [1]: 5 to 50 nM
- melting point: 152 to 154 °C

SMILES: O=S(=O)(c1ccc(Cl)cc1)C(c1ccc(C2OCCO2)cn1)c1cc(F)ccc1F (centres unmarked) [Example 42, 2-[(4-Chlorophenylsulfonyl)-(2,5-difluorophenyl)methyl]-5-(1,3-dioxolan-2-yl)pyridine]
- IC50 [1]: 50 to 500 nM
- melting point: 167 to 168 °C

SMILES: O=C(O)CCc1cc(C(c2cc(F)ccc2F)S(=O)(=O)c2ccc(C(F)(F)F)cc2)c(Cl)cn1 (centres unmarked) [Example 267, 3-[5-Chloro-4-[(2,5-difluorophenyl)(4-trifluoromethylphenylsulfonyl)methyl]pyridin-2-yl]propionic acid]
- IC50 [1]: 5 to 50 nM
- melting point: 166 to 167 °C

SMILES: N#Cc1ccc(S(=O)(=O)C(c2cc(F)ccc2F)c2cc(N)ncc2Cl)cc1 (centres unmarked) [Example 246, 4-[(2-Amino-5-chloropyridin-4-yl)(2,5-difluorophenyl)methylsulfonyl]benzonitrile]
- IC50 [1]: 5 to 50 nM
- melting point: 233 to 235 °C

SMILES: Cc1cnc(N)cc1C(c1cc(F)ccc1F)S(=O)(=O)c1ccc(Cl)cc1 (centres unmarked) [Example 211, [4-[(4-Chlorophenylsulfonyl)(2,5-difluorophenyl)methyl]-5-methylpyridin-2-yl]amine]
- IC50 [1]: < 5 nM
- melting point: 188 to 189 °C

SMILES: O=S(=O)(c1ccc(Cl)cc1)C(c1cc(F)ccc1F)c1ccncc1Cl (centres unmarked) [Example 55, 3-Chloro-4-[(4-chlorophenylsulfonyl)-(2,5-difluorophenyl)methyl]pyridine]
- IC50 [1]: 5 to 50 nM
- melting point: 160 to 161 °C

SMILES: O=C(O)CCc1ccc(C(c2cc(F)ccc2F)S(=O)(=O)c2ccc(Cl)cc2)nc1 (centres unmarked) [Example 46, 3-[6-[(4-Chlorophenylsulfonyl)-(2,5-difluorophenyl)methyl]pyridin-3-yl]propionic acid]
- IC50 [1]: 50 to 500 nM
- melting point: 158 to 160 °C

SMILES: O=S(=O)(c1ccc(Cl)cc1)C(c1ccncc1)c1cc(F)ccc1F (centres unmarked) [Example 20, 4-[[(4-Chlorophenyl)sulfonyl]-(2,5-difluorophenyl)methyl]pyridine]
- IC50 [1]: 50 to 500 nM
- melting point: 126 to 127 °C

SMILES: CS(=O)(=O)Nc1cc(C(c2cc(F)ccc2F)S(=O)(=O)c2ccc(Cl)cc2)c(Cl)cn1 (centres unmarked) [Example 197, N-[5-Chloro-4-[(4-chlorophenylsulfonyl)(2,5-difluorophenyl)methyl]pyridin-2-yl]methanesulfonamide]
- IC50 [1]: < 5 nM
- melting point: 220 to 222 °C

SMILES: O=S(=O)(c1ccc(Cl)cc1)C(c1cccnc1)c1cc(F)ccc1F (centres unmarked) [Example 19, 3-[[(4-Chlorophenyl)sulfonyl]-(2,5-difluorophenyl)methyl]pyridine]
- IC50 [1]: 50 to 500 nM
- melting point: 130 to 131 °C

SMILES: Nc1cc(C(c2cc(F)ccc2F)S(=O)(=O)c2ccc(F)cc2)c(Cl)cn1 (centres unmarked) [Example 215, [5-Chloro-4-[(2,5-difluorophenyl)-(4-fluorophenylsulfonyl)methyl]pyridin-2-yl]amine]
- IC50 [1]: < 5 nM
- melting point: 157 to 159 °C

SMILES: N#Cc1ccc(F)c(C(c2cc(N)ncc2Cl)S(=O)(=O)c2ccc(Cl)cc2)c1 (centres unmarked) [Example 234, 3-[(2-Amino-5-chloropyridin-4-yl)(4-chlorophenylsulfonyl)methyl]-4-fluorobenzonitrile]
- IC50 [1]: < 5 nM
- melting point: > 220 °C

SMILES: CS(=O)(=O)Nc1cc(C(c2cc(F)ccc2F)S(=O)(=O)c2ccc(F)cc2)c(Cl)cn1 (centres unmarked) [Example 216, N-[5-Chloro-4-[(2,5-difluorophenyl)-(4-fluorophenylsulfonyl)methyl]pyridin-2-yl]methanesulfonamide]
- IC50 [1]: < 5 nM
- melting point: 178 to 179 °C

Reference: patent US7932271B2, “Heterocyclic methyl sulfone derivative” (Daiichi Pharmaceutical Co., Ltd., priority 2003, dated 2011)
